From US11197856B2, “Bicyclic compounds and methods for their use in treating autism” (priority 2013, dated 2021)

Experiments:
[1] = system: cerebellar explants; assay: Cerebellar explants, glutamate/3-nitropropionic acid neurotoxicity; type: cell-based, Wistar rats
Procedure: Cover slips were placed into a large Petri dish and washed in 70% alcohol for 5 minutes, then washed with Millipore H2O. The cover slips were air dried, and coated with Poly-D-Lysine (1 mg/ml stock solution in PBS, 90-100 μl) for 2 hours at 34° C.
Postnatal day 8 Wistar rats were used for the study. The rats were sacrificed and placed in ice for 1 minute, decapitated and the cerebellum removed and placed on ice. Cerebellum tissue was placed in 1 ml of 0.65% glucose-supplemented PBS (10 μl 65% stock D (+)glucose/1 ml PBS) in a large Petri dish, chopped up into smaller sections and triturated with a 1 ml insulin syringe via a 23 G (0.4 mm) needle, and then squirted back into the glucose solution in the large Petri dish. The tissue was sieved through (125 μm pore size gauze) and centrifuged (2 minutes at 60 g) twice to exchange the medium into serum-free BSA-supplemented START V medium (Biochrom, Germany). The second centrifugation step was done with 1 ml of START V medium. The microexplants were reconstituted into 500 μl of START V medium and put on ice.
Two hours after PDL-coating, the slides were washed with Millipore H2O and air dried. Each slide was placed into a small Petri dish (diameter: 35 mm) and 40 μl of START V/cell suspension was added. The tissue was incubated for 2 hours at 34° C. (settlement period). START V-medium (1 ml) was then added to the Petri dish and cultivated at 34° C. in the presence of 5% CO2 in air at 100% humidity for 48 hours.
For the study, certain explant cultures were exposed to vehicle (PBS) only. In the first study (Study 1) 10 μl of toxin 1 (L-glutamate—100 mM in Millipore water; final concentration; 1 mM) and 10 μl of toxin 2 (3-nitropropionic acid—50 mM—pH 7—in Millipore water, final concentration: 0.5 mM) was applied simultaneously with the drug to be tested ([…]). In each case, the drugs were left in contact with the explants for the duration of the study.
After explants were exposed to drugs for the study period, cells were then rinsed in PBS and then fixed in increasing concentrations of paraformaldehyde (500 μl of 0.4% PFA was applied; then 1.2% PFA; then 3% PFA and finally 4% PFA (each fixation step: 2-3 minutes). Finally, the microexplants were rinsed in PBS.
Neurons in the explants were then evaluated for morphology (presence of neurites) and counted as live cells per microscopic field. Four fields displaying highest cell density were counted per cover slip and the data presented as mean±standard error of the mean (SEM); n=4 each. Statistical significance was evaluated by using the non-paired Student's t-test.

[2] = system: animals with scopolamine-induced memory impairment; assay: Morris Water Maze (MWM) test with scopolamine-induced memory impairment; type: in vivo, Wistar rats; settings: scopolamine 0.3 mg/kg i.p.; day 4 of acquisition
From the text: The first part of the study involved acute testing of cG-2-AllylP in the Morris Water Maze Memory (MWM) model. The MWM test is one of the most frequently used tests for assessing spatial memory in rats and is well recognized to accurately predict effects of disease and treatment on spatial memory generally. Therefore, the MWM test reflects effects of disease and treatment in human subjects. The standard procedure for MWM was followed. We used a circular swimming pool (80 cm depth×150 cm diameter) filled with opaque water, with the temperature maintained at 20° C. […] On days 1-4 of the experiment rats underwent memory acquisition trials with 6 trials (60 seconds each) in each day of testing (habituation phase). Latency to reach the platform was recorded and the daily reduction of average latency was used to measure the capability to learn where the hidden platform was. […] Experimental groups are detailed in the Table 4 below. On […], the probe MWM test was performed with the platform removed. There were 6 trials, each of maximum duration of 60s, at least 3 min rest between trials). […] Data was collected and analysed using Any-maze (v4.2) software. The data generated from behavioural tests was analysed using one-way ANOVA for determining the difference between the aged-groups. […]

C[C@@]12CCCN1C(=O)C1(CCCC1)NC2=O [Cyclic cyclopentyl-G-2MeP, (8aS)-Methyl-spiro[cyclopentane-1,3(4H)-tetrahydropyrrolo[1,2-a]pyrazine]-1,4(2H)-dione]
numbers of cells having neurites ([1]; administered simultaneously with glutamate): significantly increased the number of cells having neurites
glutamate-induced neurotoxicity ([1]; low doses (cG-2-AllylP: 100 pm to 10 nm)): significant decrease in glutamate-induced neurotoxicity

CN1[C@@H]2C[C@@H](OC(=O)[C@H](CO)c3ccccc3)C[C@H]1[C@@H]1O[C@@H]12 [scopolamine, reference compound]
time to platform [2]: approximately 208 % of control

N[C@@H](CCC(=O)O)C(=O)O [Glutamate, L-glutamate, reference compound]
loss of cerebellar neurons having neurites ([1]; glutamate 1 mM vs vehicle-treated controls): ~85%
